# Reference: US20250011881A1, “MYC-HSF1 DUAL AMPLIFICATION AS A BIOMARKER FOR CANCER TREATMENT” (The Trustees of Indiana University, priority 2023, published 2025)
# Counter-ions that a name gives are not always drawn.
# System: ovarian cancer cells with (OVCAR8, OVCAR4) or without (OVSAHO, CAOV3) MYC-HSF1 amplification
# Assay: Epigenetic inhibitor drug screen, cell viability (Cell Titer Blue)
# Type: cell-based
# Conditions: not given
row,Compound,Non Amp - AMP (POC) 10 uM
1,Cl.Cl.c1ccc([C@@H]2C[C@H]2NC2CCNCC2)cc1 [GSK-LSD1 2HCl],2.922 POC
2,"C/C=C1\NC(=O)[C@H]2CSSCC/C=C/[C@H](CC(=O)N[C@H](C(C)C)C(=O)N2)OC(=O)[C@H](C(C)C)NC1=O [Romidepsin (FK229, depsipeptide), Romidepsin]",4.459 POC

# Same assay, conditions: 10 µM
row,Compound,Non Amp - AMP (POC) 10 uM
1,COc1cc2c(NC3CCN(C(C)C)CC3)nc(N3CCC(F)(F)CC3)nc2cc1OCCCN1CCCC1 [UNC 0642],6.253 POC

# Same assay, conditions: 10 uM, 48 hrs; average relative cell viability (vs 1% DMSO) of non-amplified cells (OVSAHO, CAOV3) minus that of MYC-HSF1 amplified cells (OVCAR8, OVCAR4); positive = greater response in amplified cells
row,Compound,Non Amp - AMP (POC) 10 uM
1,C[C@@H]1O[C@@H](Oc2c(-c3cc(O)c(O)c(O)c3)oc3cc(O)cc(O)c3c2=O)[C@H](O)[C@H](O)[C@H]1O [Myricetrin],−0.2723 POC
2,Oc1nc(-c2ccc(C(F)(F)F)cc2)nc2c1CSCC2 [XAV-939],−6.034 POC
3,O=S(=O)(O)c1ccc2cc(N=Nc3cc(S(=O)(=O)O)c4cccnc4c3O)ccc2c1 [NSC 87877],8.877 POC
4,CC(C)OC(=O)CCC/C=C\C[C@@H]1[C@@H](CC[C@@H](O)CCc2ccccc2)[C@H](O)C[C@@H]1O [Latanoprost],−8.842 POC
5,CCOC(=O)C1=CN(Cc2ccccc2)C=C(C(=O)OCC)C1c1ccccc1 [BML-278],4.191 POC
6,"CN(C)CCCCC(=O)Nc1ccc(NC(=S)NC(=O)c2ccc(C(C)(C)C)cc2)cc1.Cl [Tenovin-6 (hydrochloride), Tenovin-6]",−3.503 POC
7,SNS-314 Mesylate,1.355 POC
8,O=C(/C=C/c1ccccc1)NC(NC(=S)Nc1ccc(Cl)cc1)C(Cl)(Cl)Cl (stereo not shown) [Sal 003],−16.28 POC
9,O=C([O-])[C@@]1(CCCCCCOc2ccc(Cl)cc2)CO1.[Na+] [(R)-(+)-Etomoxir sodium salt],3.941 POC
10,COc1cc2nc(N3CCCN(C)CC3)nc(NC3CCN(Cc4ccccc4)CC3)c2cc1OC [BIX 01294],−4.372 POC
11,O=C1/C(=C/c2ccc(O)c(Br)c2)CCC/C1=C\c1ccc(O)c(Br)c1 [HAT Inhibitor II],−25.46 POC
12,O=C(O)CC[C@H](O)C(=O)O [L-a-Hydroxyglutaric Acid],−7.873 POC
13,CNCCN1CCC(OCc2ccccc2)CC1.Cl.Cl [MS049 (hydrochloride)],−3.654 POC
14,Cc1cc(/N=N/c2ccc(S(=O)(=O)Nc3ccccn3)cc2)c(N)cc1O [MS436],8.852 POC
15,O=c1oc2c(O)c(O)cc3c(=O)oc4c(O)c(O)cc1c4c23 [Ellagic acid],13.8 POC
16,Nc1ccccc1NC(=O)c1cnccn1 [BG45],25.74 POC
17,O=C(NCc1ccccc1)c1c(/N=C/c2c(O)ccc3ccccc23)sc2c1CCCC2 [JGB1741],9.247 POC
18,Clc1cc2c(NC3CCCC3)nnc(-c3ccncc3)c2cc1Cl [A-196],2.334 POC
19,CN1CCN(C(=O)CN[C@H]2C[C@@H]2c2ccc(OCc3ccccc3)cc2)CC1.Cl.Cl [RN-1 (hydrochloride)],−2.198 POC
20,Nc1ccccc1NC(=O)CCCCCC(=O)Nc1ccccc1 [PAOA],29.57 POC
21,Cc1csc(-c2nnc(Nc3ccc(Oc4ncccc4-c4ccnc(N)n4)cc3)c3ccccc23)c1 [AMG-900],4.126 POC
22,"O=S(=O)(c1cccc2cnccc12)N1CCCNCC1 [Fasudil (HA-1077) HCl, Fasudil]",15.8 POC

# Same assay, conditions: 10 uM, 48 hrs; average relative cell viability (vs 1% DMSO) of non-amplified cells (OVSAHO, CAOV3) minus that of MYC-HSF1 amplified cells (OVCAR8, OVCAR4); positive = greater response in amplified cells; 10 µM
row,Compound,Non Amp - AMP (POC) 10 uM
1,CN(C)CCCNC(=O)c1ccc(-c2cc(O)c3ncccc3c2)cc1 [ML-324],7.484 POC
2,O=Nc1ccc(O)c2ncccc12 [5-Nitroso-8-quinolinol],9.462 POC
3,"C[C@@H]1CCN(C(=O)CC#N)C[C@@H]1N(C)c1ncnc2[nH]ccc12 [Tofacitinib (CP-690550, Tasocitinib), Tofacitinib]",−2.781 POC
4,"CNCc1ccc(-c2[nH]c3cc(F)cc4c3c2CCNC4=O)cc1 [Rucaparib (free base), Rucaparib]",8.811 POC

# Same assay, conditions: 10 uM, 48 hrs; average relative cell viability (vs 1% DMSO) of non-amplified cells (OVSAHO, CAOV3) minus that of MYC-HSF1 amplified cells (OVCAR8, OVCAR4); positive = greater response in amplified cells; listed as ML324, 10 µM
row,Compound,Non Amp - AMP (POC) 10 uM
1,CN(C)CCCNC(=O)c1ccc(-c2cc(O)c3ncccc3c2)cc1 [ML-324],4.315 POC

# Same assay, conditions: listed as UNC0642, 10 µM
row,Compound,Non Amp - AMP (POC) 10 uM
1,COc1cc2c(NC3CCN(C(C)C)CC3)nc(N3CCC(F)(F)CC3)nc2cc1OCCCN1CCCC1 [UNC 0642],−5.587 POC
